Measured values taken from BindingDB's records for doi:10.1016/j.bmcl.2005.04.079 (F. Hoffmann-La Roche, 2005).

Biological target: T1, Serine protease 1 (Bos taurus, UniProt P00760)
T1 sequence (P00760 whole entry): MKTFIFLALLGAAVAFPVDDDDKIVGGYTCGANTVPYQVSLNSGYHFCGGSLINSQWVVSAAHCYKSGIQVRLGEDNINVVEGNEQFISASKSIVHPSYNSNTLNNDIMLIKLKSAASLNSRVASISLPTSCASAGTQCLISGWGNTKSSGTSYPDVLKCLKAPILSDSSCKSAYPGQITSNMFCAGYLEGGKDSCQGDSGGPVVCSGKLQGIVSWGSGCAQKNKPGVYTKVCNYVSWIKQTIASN
Test: Serine Protease Inhibition Assay
Method: The enzyme reactions were initiated by the addition of substrate, and the color developed from the release of p-nitroanilide from each chromogenic substrate was monitored continuously for 5 min at 405 nm on a microtiter plate reader. […] The apparent Ki values were then calculated according to the Cheng-Prusoff equation: Ki = IC50/1 + [S]/Km.

CCOc1cc(-c2ccccc2)cc(C(Nc2ccc(C(=N)N)cc2)C(=O)O)c1 (stereo unspecified) [2-[(4-carbamimidoylphenyl)amino]-2-(3-ethoxy-5-phenylphenyl)acetic acid]
Ki: > 68 µM
